Measurements: patent US20100036088A1, “Selective poly-N-substituted glycine antibiotics” (priority 2008, published 2010)
Read-outs that look alike come from different tables or passages of the source. Marks after values point to notes of the source that are not given here. Square brackets hold non-standard residues; d marks the D form. Peptide text beside a SMILES is read from it. Nspe = C[C@H](NCC(=O)O)c1ccccc1; NDecylGly = CCCCCCCCCCNCC(=O)O; NPentylGly = CCCCCNCC(=O)O; Nlys = NCCCCNCC(=O)O

Assays:
B. subtilis = type: cell-based
Experimental: (§1) Antibacterial assays. MICs were determined according to CLSI M7-A6 protocols in a 96-well microtiter plate. In test wells, 50 μL bacterial inoculum (5×10^5 CFU/ml) in Mueller-Hinton broth (MHB) was added to 50 μL peptoid solution in MHB (prepared by 1:2 serial dilutions). Positive controls contained 50 μL inoculum and 50 μL MHB without peptoid. […] MIC values reported were reproducible between three independent experimental replicates, each consisting of two parallel trials. Broad-spectrum antimicrobial susceptibility testing was performed against BSL2 pathogens by Nova Biologicals, Inc. (Conroe, Tex.).
(§2) Screening antibacterial assays. MICs were determined in 96-well microtiter plates in accordance with CLSI M7-A6 protocols. Peptoid solutions with 50 μL total volume were prepared using 2:1 serial dilutions. 50 μL of bacteria inoculum (1×10^6 CFU/mL) prepared in cation-adjusted Mueller-Hinton broth (CAMHB) was added to test wells. Control wells contained 100 μL MHB (no growth) or 50 μL inoculums with 50 μL MHB with no peptoid. […] Reported values were reproducible over three experiments, each containing two parallel trials.

E. coli = type: cell-based
Experimental: as §1, §2

[1] = test system: Candida albicans (SC5314); type: cell-based, C. albicans
Experimental: Additionally, in order to characterize possible antifungal activity, a library of alkylated compounds was tested against C. albicans, a representative fungal strain.
Antifungal Assays. MICs were determined using the broth microdilution assay given by CLSI M27-A2 protocols. Candida albicans (SC5314) was grown on Sabouraud dextrose agar for 24 hours at 30° C. Cells were suspended in 0.145 M saline, and the cell concentration was adjusted to 3×10^6 cells/mL. After adjusting the cell concentration, the suspension was diluted 1:1000 with RPMI 1640 (with L-glutamine and without sodium bicarbonate, Invitrogen) buffered with 0.145 M 3-(N-morpholino) propanesulfonic acid (MOPS). Two-fold serial dilutions of peptoids, peptides, and amphotericin B (Calbiochem) were prepared in RPMI 1640 and mixed with an equal volume of the cell suspension in 96-well plates. The final testing concentrations for the peptoids and peptides were 0.20 to 100 μM, and concentrations for amphotericin B were 0.031 to 16 μM. Growth controls and sterility controls were also included. Plates were incubated for 48 hours at 35° C., and growth of C. albicans was inspected visually to determine the MICs. The MIC for each compound was defined as the lowest concentration with no visible fungal growth. Experiments were performed in duplicate on two separate days.

human erythrocytes = test: Hemolysis assay; type: cell-based; conditions: for HD10 (10% hemolytic dose) / HD50 (50% hemolytic dose): red cells of human, 1 h
Outline: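 Peptoid serial dilutions in PBS pH 7.4 were combined with an equal volume of 20 vol % washed human red cells (heparinised blood) for 1 h at 37 °C. After dilution and pelleting at 1200 g, released haemoglobin in supernatant was read at A350, scaled between PBS and 0.2 vol % Triton X-100 controls.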

SMILES | B. subtilis MIC (B. subtilis) | E. coli MIC (E. coli) | C. albicans MIC ([1]; SC5314) [µM] | HD10 (human erythrocytes) | HD50 (human erythrocytes) | C. albicans MIC ([1]; SC5314, 48 h) [µM] | HD10 (10% hemolytic dose) (human erythrocytes) | HD50 (50% hemolytic dose) (human erythrocytes)
CCCCCNCC(=O)N(CCCCN)CC(=O)N(CC(=O)N(CC(=O)N(CCCCN)CC(=O)N(CC(=O)N(CC(=O)N(CCCCN)CC(=O)N(CC(=O)N(CC(=O)N(CCCCN)CC(=O)N(CC(=O)N(CC(N)=O)[C@@H](C)c1ccccc1)[C@@H](C)c1ccccc1)[C@@H](C)c1ccccc1)[C@@H](C)c1ccccc1)[C@@H](C)c1ccccc1)[C@@H](C)c1ccccc1)[C@@H](C)c1ccccc1)[C@@H](C)c1ccccc1 [C5-1] (H-[NPentylGly][Nlys][Nspe][Nspe][Nlys][Nspe][Nspe][Nlys][Nspe][Nspe][Nlys][Nspe][Nspe]-NH2) | 1.6 µM | 6.3 µM | 6.3 | 10 µM | 40 µM | – | – | –
C[C@@H](c1ccccc1)N(CC(N)=O)C(=O)CN(C(=O)CN(CCCCN)C(=O)CN(C(=O)CN(C(=O)CNCCCCN)[C@@H](C)c1ccccc1)[C@@H](C)c1ccccc1)[C@@H](C)c1ccccc1 [16 mer, H-(Nlys-Nspe-Nspe)2-NH2] (H-[Nlys][Nspe][Nspe][Nlys][Nspe][Nspe]-NH2) | 27* μM | 27* μM | – | >220/>220 μM | >220/>220 μM | >100 | >220/>220 μM | >220/>220 μM
CCCCCCCCCCNCC(=O)N(CCCCN)CC(=O)N(CC(=O)N(CC(=O)N(CCCCN)CC(=O)N(CC(=O)N(CC(N)=O)[C@@H](C)c1ccccc1)[C@@H](C)c1ccccc1)[C@@H](C)c1ccccc1)[C@@H](C)c1ccccc1 [C10-16 mer] (H-[NDecylGly][Nlys][Nspe][Nspe][Nlys][Nspe][Nspe]-NH2) | 1.6 µM | 6.3 µM | 6.25 | 30 µM | 80 µM | – | – | –
C[C@@H](c1ccccc1)N(CC(N)=O)C(=O)CN(C(=O)CN(CCCCN)C(=O)CN(C(=O)CN(C(=O)CN(CCCCN)C(=O)CN(C(=O)CN(C(=O)CNCCCCN)[C@@H](C)c1ccccc1)[C@@H](C)c1ccccc1)[C@@H](C)c1ccccc1)[C@@H](C)c1ccccc1)[C@@H](C)c1ccccc1 [19 mer, H-(Nlys-Nspe-Nspe)3-NH2] (H-[Nlys][Nspe][Nspe][Nlys][Nspe][Nspe][Nlys][Nspe][Nspe]-NH2) | 1.6 µM | 25 µM | – | 150 µM | > 200 µM | 15.6 | >150/>150 μM | >150/>150 μM
CCCCCNCC(=O)N(CCCCN)CC(=O)N(CC(=O)N(CC(=O)N(CCCCN)CC(=O)N(CC(=O)N(CC(=O)N(CCCCN)CC(=O)N(CC(=O)N(CC(N)=O)[C@@H](C)c1ccccc1)[C@@H](C)c1ccccc1)[C@@H](C)c1ccccc1)[C@@H](C)c1ccccc1)[C@@H](C)c1ccccc1)[C@@H](C)c1ccccc1 [C5-19 mer] (H-[NPentylGly][Nlys][Nspe][Nspe][Nlys][Nspe][Nspe][Nlys][Nspe][Nspe]-NH2) | 1.0 µM | 16.3 µM | 12.5 | 65 µM | > 200 µM | – | – | –
CCCCCCCCCCNCC(=O)N(CCCCN)CC(=O)N(CC(=O)N(CC(=O)N(CCCCN)CC(N)=O)[C@@H](C)c1ccccc1)[C@@H](C)c1ccccc1 [C10-14 mer] (H-[NDecylGly][Nlys][Nspe][Nspe][Nlys]-NH2) | 6.3 µM | >100 µM | 100 | >200/>200 μM | >200/>200 μM | – | – | –
